Reference: patent US20180369186A1, “METHOD FOR MODULATING AUTOPHAGY AND APPLICATIONS THEREOF” (JAWAHARLAL NEHRU CENTRE FOR ADVANCED SCIENTIFIC RESEARCH, priority 2015, published 2018)

What was measured:
[1] = test system: Salmonella typhimurium SL1344; experiment: Burden assay: intracellular Salmonella CFU in U1752 and HeLa cells; type: cell-based
Procedure: U1752 cell line and HeLa cell line are infected with Salmonella typhimurium SL1344, and grown overnight in micro-aerophilic condition, at an MOI of 400 for one hour. The cells are treated with media containing Gentamycin at the concentration of 100 μg/ml for 2 hours to kill the extracellular bacteria. The cells are then treated with compounds and incubated for ?hours to 4 hours. At the end, the cells are lysed using lysis buffer (0.1% SDS, 1% Triton X-100, 1× PBS) and the intercellular Salmonella is plated and the CFU is counted. The CFU of Salmonella in the Acacetin treated cells is reduced by almost 2 fold compared to that of the untreated cells. Statistical analysis of the results is done using Graphpad prism—two tailed T test (FIG. 12)

[2] = test system: mcherry Salmonella typhimurium; experiment: Co-localization of GFP-LC3 / p62 with mcherry Salmonella in HeLa cells; type: cell-based, human
Procedure: HeLa cells are transfected with GFP-LC3 using lipofectamine 3000. After 24 hours, cells are infected with Salmonella typhimurium WT strain SL1344 with an MOI of 400 for 15 minutes followed by gentamycin treatment at the concentration of 100 μg/ml for 10 minutes to kill the extracellular bacteria.
The cells are treated with and without Acacetin and incubated for different time points (1, 2, 4 and 6 hours) at 37° C. Quantitation of LC3 co-localization with Salmonella typhimurium SL1344 is done using ImageJ-Cell counter option (FIG. 14), to check whether with compound (Acacetin) treatment more autophagy machinery is recruited towards the bacteria.

[3] = test system: mcherry-Salmonella typhimurium SL1344; experiment: Live cell microscopy of Salmonella replication in HeLa cells; type: cell-based; conditions: GFP-LC3 transfected HeLa; vs untreated samples
Procedure: GFP-LC3 transfected HeLa cells is infected with mcherry-Salmonella typhimurium SL1344 for 15 minutes (MOI-400) and is treated with gentamycin for 10 minutes. The cells are then washed with 1× PBS and changed to either only media (a) and media containing Acacetin (b) and imaged by FV10i-olympus confocal live cell imaging microscope, using 60× water immersion lens, with confocality aperature set to 1.0. Images are taken at an interval of 15 minutes. (c) The intensity of the Red channel denoting the mcherry tagged S. typhimuriumis measured using image J—Stacks T function (intensity of red channel signifies the replication of the S. typhimurium over time). The replication of Salmonella in Acacetin treated samples is restricted as compared to that of untreated samples (FIG. 15)

[4] = test system: HeLa cells (autophagosomes and autolysosomes); experiment: Tandem RFP-GFP-LC3B (traffic light) assay in HeLa cells; type: cell-based, human; conditions: ptf-LC3 transfected HeLa; 2 hours
Procedure: Transfection is done on a 60 mm dish with HeLa cells at 60-70% confluency. Cells were transfected with tandem RFP-GFP-MAP1LC3B construct (Addgene plasmid #21074) using 5 μl of Lipofectamine 2000 (11668-019, Invitrogen) and 2.5 μg of DNA (2:1 ratio) diluted in 100 μl of OPTI-MEM (31985-070, Invitrogen) separately. 72 hours after transfection cells are either left untreated or treatment with various concentrations of Bay11-7082 ZPCK is done for 2 hours. Starvation is induced by treating cells with Earle's balanced salt solution (EBBS). After treatment, cells are fixed in 4% paraformaldehyde and permeabilized using 0.25% Triton X-100, The coverslip is mounted with […] antifade reagent (H-1000, Vector laboratories). Imaging for HeLa cells is carried out using Delta vision microscope (Olympus 60×/1.4, Plan ApoN, excitation and emission filter Cy5, FITC and TRITC, polychroic Quad).
For tandem RFP-EGFP-LC3 assay, sub-confluent cells are seeded in 60 mm dishes, transfected with ptf LC3 construct and allowed to express for 24 h. Later, cells are trypsinized, reseeded (10^5 cells) and allowed to attach on cover slips in a 12 well plate.
For mammalian cell microscopy, after 2 h of treatment, coverslips are fixed using 4% paraformaldehyde (PFA) (Sigma) and permeabilized using Triton X-100 (0.2%, HiMedia). Coverslips are mounted using antifade, Vectashield (Vector laboratories). For antibody staining, coverslips are blocked in 5% BSA for 1 h, incubated in primary antibody overnight and subsequent probing with fluorescent conjugated antibody. Coverslips are mounted using antifade, Vectashield (Vector laboratories).
Images are acquired using DeltaVisionElitewidefield microscope (API, GE) with following filters: DAPI (390/18 and 435/48), FITC (490/20 and 529/38), TRITC (542/27 and 594/45) and Cy5 (632/22 and 676/34). Images are processed using DV SoftWoRX software. Autophagosome (yellow) and autolysosome (red) are counted using Cell Counter plug-in in ImageJ software (NIH) and graphically represented as fold difference versus untreated (FIG. 3E).
Sub-confluent HeLa and/or SH-SY5Y cells are seeded into 60 mm cell culture dishes, then transfected with ptf LC3 construct and/or siRNA and allowed to express for 48 h. Cells are trypsinized, seeded again on poly-D-lysine coated cover slips in a 12 or 24 well plates and allowed to attach. After appropriate treatments, the coverslips containing cells are processed for imaging. For immunofluorescent antibody staining, the cover slips are incubated in primary antibody at 4° C. for overnight followed by secondary antibody incubation at room temperature.
For imaging the mammalian cells, after appropriate treatments, coverslips containing cells are fixed using 4% paraformaldehyde (PFA) (Sigma) and then permeabilized using Triton X-100 (0.2%, HiMedia). On slide, coverslips are mounted using antifade, Vectashield mounting medium (Vector laboratories). For antibody staining, coverslips are blocked using 5% BSA for 1 h at room temperature, then incubated with primary antibody at 4° C., overnight and then subsequently probed with corresponding fluorescent dye conjugated secondary antibody.

Pot1-GFP (peroxisomes) = experiment: Pot1-GFP pexophagy assay; type: cell-based, S. cerevisiae; conditions: starvation medium; vs untreated cells
Procedure: Pot1-GFP positive strains are allowed to grow till the A600 reached 0.8-1 in YPD. Peroxisome biogenesis is induced by growing these cells in oleate medium (0.1% oleate, 0.5% Tween-40, 0.25% yeast extract, 0.5% peptone, and 5 mM phosphate buffer) for 12hours. Cells are harvested, washed twice to remove traces of oleate and transferred to starvation medium without nitrogen, at inoculum density A600 3, to induce pexophagy. Cells are collected at various time intervals after pexophagy induction and processed by TCA method.
Pot1-GFP positive strains are allowed to grow in yeast extract peptone dextrose (YPD) (2% dextrose, 2% peptone and 1% yeast extract) till the Absorbance at 600 nm reaches 0.6-0.8. Peroxisome biogenesis is induced by growing these cells in YPG medium (1% yeast extract, 2% peptone, 3% glycerol) for 12 hours.
Cells are harvested, washed twice to remove traces of oleate and transferred to starvation medium with and without Acacetin, at. inoculum density Absorbance at 600 nm 3/ml, to induce pexophagy. Cells are collected at various time intervals after pexophagy induction and processed by TCA precipitation.

[5] = test system: Salmonella typhimurium SL1344; experiment: Growth curve of Salmonella typhimurium SL1344; type: cell-based; conditions: Luria Broth, 10 hours
Procedure: A single colony of Salmonella typhimurium WT strain SL1344 grown overnight at 37° C. is diluted in Luria Broth media to get an O.D of 0.2. The diluted culture is used for treatments with Acacetin and Acacetin with gentamycin (100 μg/ml). The growth curve of the culture is obtained by measuring the absorbance at 600 nm using varioskan Flash Multiplate Spectrophotometer at 300 rpm and O.D taken at every 30 minutes interval for 10 hours is plotted using GraphPad Prism.

`COc1ccc(-c2cc(=O)c3c(O)cc(O)cc3o2)cc1` [Acacetin, 5,7-dihydroxy-2-(4-methoxyphenyl)chromen-4-one] was tested, and the “functionality in Atg5 KO HeLa cell line” value ([1]; Atg5 KO HeLa) was “non-functionality”, the “reduction of CFU of intracellular Salmonella vs untreated” value ([1]; U1752 and HeLa cell lines, MOI 400) was about 2 fold and the “temporal recruitment of LC3 to mcherry Salmonella typhimurium” value [2] was “increases temporal recruitment of LC3”. The “temporal recruitment of p62 to mcherry Salmonella typhimurium” value [2] was “increased temporal recruitment of p62”, the “replication of Salmonella (red channel intensity)” value [3] was “restricted” and the “number of autolysosomes (red dots)” value [4] was “increase in the number of autolysosomes”. For the same molecule, the “accumulation of free GFP over time (pexophagy)” value (Pot1-GFP (peroxisomes)) was “enhanced accumulation of free GFP” and the “anti-microbial activity against Salmonella typhimurium SL1344” value [5] was “does not have any anti-microbial activity”.
